According to ChEMBL document CHEMBL1201862, “PubChem BioAssay data set” (2004):
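Grown in 96-well plates, cells were treated for 48 hours with each compound at five concentrations. Insufficient inhibition: endpoint recorded as highest concentration tested. GI50 = concentration required for 50% inhibition of growth.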 Calls of active or inactive are those of the source. Cut-off read from the data, not from the text of the source: active = GI50 up to about 1.1 µM and inactive = higher.

Legend:
Assay in all cases: growth of human tumour cells (NCI), 48 h
[1] = system: 786-0
[2] = system: COLO 205
[3] = system: EKVX
[4] = system: LOX IMVI
[5] = system: M14
[6] = system: OVCAR-3
[7] = system: OVCAR-5
[8] = system: SF-539
[9] = system: SK-OV-3
[10] = system: SNB-19
[11] = system: SNB-75
[12] = system: TK-10
[13] = system: UACC-257
[14] = system: UACC-62
[15] = system: HCT-116

Measured: GI50

Cc1cccc(-n2c(N)c(-c3nc4ccccc4[nH]3)sc2=S)c1
inactive: [1] 24.4 µM | [2] 23.8 µM | [3] 48.4 µM | [4] 26.8 µM | [5] 25.3 µM | [6] 25 µM | [7] 55.1 µM | [8] 20.4 µM | [9] 47.9 µM | [10] 36.6 µM | [11] 50 µM | [12] 29.5 µM | [13] 28.6 µM | [14] 18.4 µM

O=C(O)[C@H](NS(=O)(=O)c1ccc(F)cc1)c1ccccc1
inactive: [1] > 100 µM | [2] > 100 µM | [3] > 100 µM | [15] > 100 µM | [4] > 100 µM | [5] > 100 µM | [6] > 100 µM | [7] > 100 µM | [8] > 100 µM | [9] > 100 µM | [10] > 100 µM | [11] > 100 µM | [12] > 100 µM | [13] > 100 µM | [14] > 100 µM

CC12CC(=O)NN=C1c1ccccc1C2 (stereo not given)
inactive: [1] > 100 µM | [2] > 100 µM | [3] 98.2 µM | [15] > 100 µM | [4] > 100 µM | [5] > 100 µM | [6] > 100 µM | [7] > 100 µM | [8] > 100 µM | [9] > 100 µM | [10] > 100 µM | [11] > 100 µM | [12] > 100 µM | [13] > 100 µM | [14] > 100 µM

N=C(N)NS(=O)(=O)c1ccc(NC(=O)c2cccc3cc4ccccc4nc23)cc1
inactive: [1] 67.9 µM | [2] > 100 µM | [3] > 100 µM | [15] 19.3 µM | [4] 51.5 µM | [5] > 100 µM | [6] > 100 µM | [7] > 100 µM | [8] 25.5 µM | [9] > 100 µM | [10] 9.79 µM | [11] 95.1 µM | [12] > 100 µM | [13] > 100 µM | [14] > 100 µM

COc1cc2cccc(/N=C\c3cccc(OC)c3OC(C)C)c2cc1OC
inactive: [1] 18.5 µM | [2] 36.2 µM | [3] 52 µM | [5] 17.9 µM | [6] 19.4 µM | [7] > 100 µM | [9] 25.2 µM | [11] 21.7 µM | [12] 25.6 µM | [13] 20.8 µM | [14] 19.6 µM
